For orientation: inhibition means the relative decrease from the control value, in per cent.

The target of test [1] is T1, Serine/threonine-protein kinase 17A (Homo sapiens) (UniProt Q9UEE5).
T1 sequence (whole entry): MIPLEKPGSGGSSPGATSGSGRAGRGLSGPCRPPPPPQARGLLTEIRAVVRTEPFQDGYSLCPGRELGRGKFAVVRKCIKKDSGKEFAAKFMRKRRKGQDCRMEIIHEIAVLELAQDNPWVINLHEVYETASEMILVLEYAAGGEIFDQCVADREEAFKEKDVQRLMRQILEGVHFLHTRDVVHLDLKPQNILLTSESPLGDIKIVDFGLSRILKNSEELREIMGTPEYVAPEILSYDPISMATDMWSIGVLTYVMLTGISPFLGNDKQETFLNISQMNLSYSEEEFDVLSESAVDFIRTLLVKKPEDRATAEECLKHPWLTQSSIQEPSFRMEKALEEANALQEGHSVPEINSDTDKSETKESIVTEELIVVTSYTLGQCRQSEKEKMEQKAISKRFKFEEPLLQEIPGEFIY
In words: Inhibition of human recombinant DRAK1 at 40 nM in presence of ATP by radiometric assay relative to control.

In test [2] the target is Fibroblast growth factor receptor 3 (Homo sapiens) (UniProt P22607). The test is described as follows: Inhibition of human recombinant FGFR3 at 40 nM in presence of ATP by radiometric assay relative to control.
Test [3] addresses T2, Eukaryotic translation initiation factor 2-alpha kinase 3 (Homo sapiens) (UniProt Q9NZJ5).
T2 sequence (whole entry): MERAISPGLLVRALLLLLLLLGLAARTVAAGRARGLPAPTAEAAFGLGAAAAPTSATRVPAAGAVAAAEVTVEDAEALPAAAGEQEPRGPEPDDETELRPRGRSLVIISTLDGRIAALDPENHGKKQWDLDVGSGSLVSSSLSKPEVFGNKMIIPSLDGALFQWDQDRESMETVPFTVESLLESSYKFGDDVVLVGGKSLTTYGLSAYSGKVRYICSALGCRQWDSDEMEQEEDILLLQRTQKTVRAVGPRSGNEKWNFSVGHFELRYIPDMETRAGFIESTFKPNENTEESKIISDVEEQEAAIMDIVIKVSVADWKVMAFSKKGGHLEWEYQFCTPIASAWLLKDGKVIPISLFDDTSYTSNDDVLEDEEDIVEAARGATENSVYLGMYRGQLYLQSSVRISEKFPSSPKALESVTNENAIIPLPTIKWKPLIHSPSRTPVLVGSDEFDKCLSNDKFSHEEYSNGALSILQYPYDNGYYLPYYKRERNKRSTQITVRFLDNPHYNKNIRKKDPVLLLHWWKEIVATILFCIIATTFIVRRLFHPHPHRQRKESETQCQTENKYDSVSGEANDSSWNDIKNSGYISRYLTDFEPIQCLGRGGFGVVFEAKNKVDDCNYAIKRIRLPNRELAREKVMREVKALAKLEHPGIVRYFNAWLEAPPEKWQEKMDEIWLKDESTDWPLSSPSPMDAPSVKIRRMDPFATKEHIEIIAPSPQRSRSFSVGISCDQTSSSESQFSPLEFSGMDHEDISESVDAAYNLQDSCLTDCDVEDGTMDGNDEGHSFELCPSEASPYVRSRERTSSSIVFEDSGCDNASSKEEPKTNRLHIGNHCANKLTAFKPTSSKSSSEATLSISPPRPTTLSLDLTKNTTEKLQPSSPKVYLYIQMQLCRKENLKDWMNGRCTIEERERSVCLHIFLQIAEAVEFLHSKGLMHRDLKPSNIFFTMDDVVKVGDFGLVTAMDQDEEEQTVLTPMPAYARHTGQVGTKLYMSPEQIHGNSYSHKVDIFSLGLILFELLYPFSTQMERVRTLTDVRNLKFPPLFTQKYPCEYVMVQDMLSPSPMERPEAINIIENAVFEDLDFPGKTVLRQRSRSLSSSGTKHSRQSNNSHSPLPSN
The test is described as follows: Inhibition of human recombinant PEK at 40 nM in presence of ATP by radiometric assay relative to control.

Test [4] deals with Cyclin-dependent kinase 7 (Homo sapiens) (UniProt P50613). The test is described as follows: Inhibition of human recombinant CDK7 at 40 nM related to control ULK1.
Chain of Cyclin-dependent kinase 7 (Homo sapiens) (P50613 whole entry): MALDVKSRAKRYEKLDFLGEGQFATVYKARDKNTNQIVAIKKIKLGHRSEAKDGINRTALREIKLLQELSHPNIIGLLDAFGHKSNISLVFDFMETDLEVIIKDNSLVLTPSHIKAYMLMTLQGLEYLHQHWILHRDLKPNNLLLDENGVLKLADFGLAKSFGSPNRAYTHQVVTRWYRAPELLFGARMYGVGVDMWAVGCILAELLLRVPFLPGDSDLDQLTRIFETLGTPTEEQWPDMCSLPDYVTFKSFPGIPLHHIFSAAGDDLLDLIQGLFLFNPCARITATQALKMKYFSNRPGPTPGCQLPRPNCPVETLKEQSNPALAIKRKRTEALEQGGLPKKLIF
Test [5] deals with Casein kinase II subunit alpha' (Homo sapiens) (UniProt P19784). In words: Inhibition of human recombinant CK2a2 at 40 nM related to control ULK1.
Chain of Casein kinase II subunit alpha' (Homo sapiens) (P19784 whole entry, looked up): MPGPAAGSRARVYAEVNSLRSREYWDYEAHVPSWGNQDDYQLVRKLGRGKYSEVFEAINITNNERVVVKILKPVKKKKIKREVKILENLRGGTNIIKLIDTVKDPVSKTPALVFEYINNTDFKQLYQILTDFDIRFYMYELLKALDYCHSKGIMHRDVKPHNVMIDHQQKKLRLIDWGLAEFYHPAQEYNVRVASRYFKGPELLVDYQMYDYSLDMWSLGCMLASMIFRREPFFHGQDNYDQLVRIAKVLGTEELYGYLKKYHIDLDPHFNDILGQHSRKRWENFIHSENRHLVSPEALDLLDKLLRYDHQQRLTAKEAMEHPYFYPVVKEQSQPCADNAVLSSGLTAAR
Test [6] addresses Receptor-type tyrosine-protein kinase FLT3 (Homo sapiens) (UniProt P36888). In words: Inhibition of human recombinant FLT3 at 40 nM related to control ULK1.
Test [7] has as its target Mitogen-activated protein kinase kinase kinase kinase 1 (Homo sapiens) (UniProt Q92918). The test is described as follows: Inhibition of human recombinant HPK1 at 40 nM related to control ULK1.
Test [8] addresses Serine/threonine-protein kinase/endoribonuclease IRE1 (Homo sapiens) (UniProt O75460). In words: Inhibition of human recombinant IRE1 at 40 nM related to control ULK1.
Test [9] concerns the target Mitogen-activated protein kinase kinase kinase 9 (Homo sapiens) (UniProt P80192). In words: Inhibition of human recombinant MLK1 at 40 nM related to control ULK1.
For test [10], the target named is [Pyruvate dehydrogenase (acetyl-transferring)] kinase isozyme 4, mitochondrial (Homo sapiens) (UniProt Q16654). In words: Inhibition of human recombinant PDHK4 at 500 nM in presence of ATP by radiometric assay relative to control.
Test [11] concerns the target Death-associated protein kinase 2 (Homo sapiens) (UniProt Q9UIK4). The test is described as follows: Inhibition of human recombinant DAPK2 at 500 nM related to control ULK1.
Test [12] addresses Protein-tyrosine kinase 2-beta (Homo sapiens) (UniProt Q14289). In words: Inhibition of human recombinant PYK2 at 500 nM related to control ULK1.
The target of test [13] is Serine/threonine-protein kinase VRK2 (Homo sapiens) (UniProt Q86Y07). The test is described as follows: Inhibition of human recombinant VRK2 at 500 nM related to control ULK1.
Chain of Serine/threonine-protein kinase VRK2 (Homo sapiens) (Q86Y07 whole entry): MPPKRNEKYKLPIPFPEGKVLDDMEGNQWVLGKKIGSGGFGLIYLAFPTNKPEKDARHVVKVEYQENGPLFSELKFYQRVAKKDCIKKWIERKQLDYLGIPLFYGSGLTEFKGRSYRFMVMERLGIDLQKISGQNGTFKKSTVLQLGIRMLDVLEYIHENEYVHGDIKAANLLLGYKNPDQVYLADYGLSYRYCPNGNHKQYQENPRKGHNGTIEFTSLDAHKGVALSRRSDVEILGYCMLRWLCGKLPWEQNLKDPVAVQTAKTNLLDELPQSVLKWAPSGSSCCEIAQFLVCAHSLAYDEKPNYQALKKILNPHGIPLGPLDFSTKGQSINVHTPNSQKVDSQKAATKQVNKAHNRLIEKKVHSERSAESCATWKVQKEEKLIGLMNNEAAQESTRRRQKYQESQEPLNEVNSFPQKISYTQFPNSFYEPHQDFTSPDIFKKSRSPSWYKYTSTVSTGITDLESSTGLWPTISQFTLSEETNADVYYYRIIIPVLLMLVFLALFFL
Test [14] concerns the target Serine/threonine-protein kinase 32C (Homo sapiens) (UniProt Q86UX6). The test is described as follows: Inhibition of human recombinant YANK3 at 500 nM related to control ULK1.
The target of test [15] is Dual specificity protein kinase CLK1 (Homo sapiens) (UniProt P49759). In words: Inhibition of human recombinant CLK1 at 15 nM in presence of ATP by radiometric assay relative to control.
Test [16] has as its target Eukaryotic translation initiation factor 2-alpha kinase 1 (Homo sapiens) (UniProt Q9BQI3). The test is described as follows: Inhibition of human recombinant HRI at 15 nM in presence of ATP by radiometric assay relative to control.
The target of test [17] is RAC-beta serine/threonine-protein kinase (Homo sapiens) (UniProt P31751). The test is described as follows: Inhibition of human recombinant AKT2 at 15 nM related to control ULK1.
Test [18] addresses Mitogen-activated protein kinase kinase kinase kinase 4 (Homo sapiens) (UniProt O95819). The test is described as follows: Inhibition of human recombinant HGK at 15 nM related to control ULK1.
Test [19] concerns the target Ribosomal protein S6 kinase alpha-6 (Homo sapiens) (UniProt Q9UK32). In words: Inhibition of human recombinant RSK4 at 15 nM related to control ULK1.
Test [20] has as its target Myosin light chain kinase, smooth muscle (Homo sapiens) (UniProt Q15746). The test is described as follows: Inhibition of human recombinant smMLCK at 15 nM related to control ULK1.

Chain of Mitogen-activated protein kinase kinase kinase 9 (Homo sapiens) (P80192 whole entry, looked up): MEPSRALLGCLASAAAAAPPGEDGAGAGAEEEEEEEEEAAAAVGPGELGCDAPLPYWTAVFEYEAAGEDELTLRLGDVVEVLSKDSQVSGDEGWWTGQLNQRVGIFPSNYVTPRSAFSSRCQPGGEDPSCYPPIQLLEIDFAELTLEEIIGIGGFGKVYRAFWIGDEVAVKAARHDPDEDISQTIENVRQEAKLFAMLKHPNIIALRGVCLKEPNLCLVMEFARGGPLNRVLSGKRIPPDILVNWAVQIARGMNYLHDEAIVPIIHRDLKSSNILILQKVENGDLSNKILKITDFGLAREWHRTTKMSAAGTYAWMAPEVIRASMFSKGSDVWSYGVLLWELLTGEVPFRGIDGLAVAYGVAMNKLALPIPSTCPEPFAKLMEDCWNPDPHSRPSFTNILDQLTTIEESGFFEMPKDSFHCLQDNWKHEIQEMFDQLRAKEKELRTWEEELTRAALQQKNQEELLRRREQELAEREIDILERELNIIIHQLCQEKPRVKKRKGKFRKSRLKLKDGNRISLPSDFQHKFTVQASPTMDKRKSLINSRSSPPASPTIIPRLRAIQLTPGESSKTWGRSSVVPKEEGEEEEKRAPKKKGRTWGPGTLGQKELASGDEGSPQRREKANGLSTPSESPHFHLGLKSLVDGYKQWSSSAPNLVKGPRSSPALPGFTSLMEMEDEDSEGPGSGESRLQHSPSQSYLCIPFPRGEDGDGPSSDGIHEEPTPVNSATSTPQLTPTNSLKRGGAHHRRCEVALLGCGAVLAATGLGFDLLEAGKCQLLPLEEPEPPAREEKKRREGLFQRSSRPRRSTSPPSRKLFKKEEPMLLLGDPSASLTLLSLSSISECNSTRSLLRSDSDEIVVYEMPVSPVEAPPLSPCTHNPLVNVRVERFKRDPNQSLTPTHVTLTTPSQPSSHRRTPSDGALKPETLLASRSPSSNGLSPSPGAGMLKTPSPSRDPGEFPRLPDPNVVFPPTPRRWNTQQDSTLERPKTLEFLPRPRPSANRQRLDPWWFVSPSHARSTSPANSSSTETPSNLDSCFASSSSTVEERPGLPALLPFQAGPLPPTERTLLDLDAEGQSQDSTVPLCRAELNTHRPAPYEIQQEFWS
Chain of Eukaryotic translation initiation factor 2-alpha kinase 1 (Homo sapiens) (Q9BQI3 whole entry): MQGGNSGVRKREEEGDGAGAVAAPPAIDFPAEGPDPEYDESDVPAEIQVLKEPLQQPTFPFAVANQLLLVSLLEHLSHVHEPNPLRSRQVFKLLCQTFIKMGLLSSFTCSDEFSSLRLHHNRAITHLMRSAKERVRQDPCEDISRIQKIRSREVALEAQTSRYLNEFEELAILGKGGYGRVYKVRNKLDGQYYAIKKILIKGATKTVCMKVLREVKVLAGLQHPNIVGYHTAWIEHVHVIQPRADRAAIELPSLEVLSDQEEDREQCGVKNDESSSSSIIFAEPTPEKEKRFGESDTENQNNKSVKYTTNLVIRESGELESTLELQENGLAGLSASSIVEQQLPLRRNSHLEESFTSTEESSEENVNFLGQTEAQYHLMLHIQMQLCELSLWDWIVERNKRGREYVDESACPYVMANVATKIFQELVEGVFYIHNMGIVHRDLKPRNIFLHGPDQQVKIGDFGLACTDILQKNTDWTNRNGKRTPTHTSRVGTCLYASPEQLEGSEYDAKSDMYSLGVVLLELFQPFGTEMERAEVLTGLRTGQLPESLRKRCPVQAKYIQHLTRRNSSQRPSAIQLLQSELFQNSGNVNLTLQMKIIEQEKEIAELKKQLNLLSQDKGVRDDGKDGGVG
Chain of Death-associated protein kinase 2 (Homo sapiens) (Q9UIK4 whole entry, looked up): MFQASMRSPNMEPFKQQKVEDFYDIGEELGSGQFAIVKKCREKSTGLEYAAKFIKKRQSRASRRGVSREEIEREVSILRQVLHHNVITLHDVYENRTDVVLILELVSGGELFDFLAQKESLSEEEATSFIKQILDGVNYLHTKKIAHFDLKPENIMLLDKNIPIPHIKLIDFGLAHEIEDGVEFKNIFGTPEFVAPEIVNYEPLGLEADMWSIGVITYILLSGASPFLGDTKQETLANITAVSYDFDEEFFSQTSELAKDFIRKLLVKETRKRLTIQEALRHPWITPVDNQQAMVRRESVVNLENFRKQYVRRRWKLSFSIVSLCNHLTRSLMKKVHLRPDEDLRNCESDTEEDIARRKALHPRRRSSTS
Chain of Serine/threonine-protein kinase/endoribonuclease IRE1 (Homo sapiens) (O75460 19-977 limits assumed): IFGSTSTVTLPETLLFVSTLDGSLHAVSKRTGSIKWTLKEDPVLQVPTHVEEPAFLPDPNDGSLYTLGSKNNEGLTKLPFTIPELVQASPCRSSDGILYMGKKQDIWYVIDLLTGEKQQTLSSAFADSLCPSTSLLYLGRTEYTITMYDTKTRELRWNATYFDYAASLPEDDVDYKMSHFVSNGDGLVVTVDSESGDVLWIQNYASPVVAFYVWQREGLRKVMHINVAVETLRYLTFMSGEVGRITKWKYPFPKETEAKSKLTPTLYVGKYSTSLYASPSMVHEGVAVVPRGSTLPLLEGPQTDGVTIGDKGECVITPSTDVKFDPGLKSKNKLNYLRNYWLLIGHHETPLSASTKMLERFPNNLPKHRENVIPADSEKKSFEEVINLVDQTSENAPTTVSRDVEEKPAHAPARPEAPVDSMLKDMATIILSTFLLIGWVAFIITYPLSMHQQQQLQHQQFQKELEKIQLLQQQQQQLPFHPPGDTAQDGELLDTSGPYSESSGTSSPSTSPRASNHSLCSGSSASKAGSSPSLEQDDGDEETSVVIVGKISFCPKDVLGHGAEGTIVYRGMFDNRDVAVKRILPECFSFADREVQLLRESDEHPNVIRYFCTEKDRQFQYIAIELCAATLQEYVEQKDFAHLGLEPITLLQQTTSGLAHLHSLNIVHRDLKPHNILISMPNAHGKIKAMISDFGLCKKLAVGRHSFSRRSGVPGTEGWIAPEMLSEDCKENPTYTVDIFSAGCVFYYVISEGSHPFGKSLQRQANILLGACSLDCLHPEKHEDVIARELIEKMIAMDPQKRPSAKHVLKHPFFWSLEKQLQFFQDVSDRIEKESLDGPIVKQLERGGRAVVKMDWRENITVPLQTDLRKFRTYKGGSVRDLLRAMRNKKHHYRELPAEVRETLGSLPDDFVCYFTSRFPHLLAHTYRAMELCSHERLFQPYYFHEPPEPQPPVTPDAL
Chain of Serine/threonine-protein kinase 32C (Homo sapiens) (Q86UX6 whole entry): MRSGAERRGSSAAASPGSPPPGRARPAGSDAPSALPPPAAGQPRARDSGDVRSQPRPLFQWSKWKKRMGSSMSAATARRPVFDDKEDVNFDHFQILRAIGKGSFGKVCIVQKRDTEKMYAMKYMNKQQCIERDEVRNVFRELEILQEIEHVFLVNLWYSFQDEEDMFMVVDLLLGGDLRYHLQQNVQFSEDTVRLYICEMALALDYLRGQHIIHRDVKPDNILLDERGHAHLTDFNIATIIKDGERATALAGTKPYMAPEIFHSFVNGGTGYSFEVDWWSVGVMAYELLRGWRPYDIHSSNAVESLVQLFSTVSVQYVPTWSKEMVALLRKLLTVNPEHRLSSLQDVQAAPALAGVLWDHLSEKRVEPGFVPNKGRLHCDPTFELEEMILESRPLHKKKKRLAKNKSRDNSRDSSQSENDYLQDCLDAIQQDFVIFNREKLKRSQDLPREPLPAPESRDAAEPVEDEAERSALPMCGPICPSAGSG

For the compound `O=C(N[C@@H](C1CC1)C(F)(F)F)c1cc(-c2cnn3cc(-c4ccc(F)cc4)cnc23)cs1`, the inhibition in test [1] turned out to be 78%; in test [2], 0%; in [3] it was 0%. The fold change (FC) in test [4] came to 0.32; in [5], 0.11; in [6] it was 0.26; in [7], 0; in [8], 0; in test [9], 0.1.

In the case of `CNC(=O)c1ccccc1Oc1nc(Nc2cc(OC)c(OC)c(OC)c2)ncc1Br`, in test [10], the inhibition was 5%. Further, the fold change (FC) in [11] came out at 0; in [12], 0.72; in test [13], 0.31; in [14], 0.

In the case of `CC(C)[C@H](NC(=O)c1cc(-c2cnn3cc(-c4ccc(OCCN5CCCCC5)cc4)cnc23)cs1)C(F)(F)F`, the inhibition in test [15] is 84%; in [16], 0%. The fold change (FC) in [17], in [18], in [19] and in [20] was 0 each time.

These data come from ChEMBL document CHEMBL5653631, “A Potent and Selective ULK1 Inhibitor Suppresses Autophagy and Sensitizes Cancer Cells to Nutrient Stress” (iScience, 2018).
